System: PAF-induced aggregation of human thrombocytes
Experiment: Inhibition of PAF-induced blood platelet aggregation in vitro
Format: cell-based
Conditions: thrombocyte-rich plasma, aggregation induced with PAF 5×10^-8 M, concentration giving a 50% inhibition of aggregation, read-out: PAF-Antag. IC50
Experimental: 1. Inhibition of blood platelet aggregation in vitro
The PAF-induced aggregation of human thrombocytes in vitro is used to determine PAF-antagonistic activity. To obtain thrombocyte-rich plasma (TRP) blood is taken from an uncongested vein using a plastic syringe containing 3.8% sodium citrate solution. The ratio of sodium citrate solution to blood is 1:9. After careful mixing the citrate blood is centrifuged for 20 minutes at 150 g (1200 rpm). The thrombocyte aggregation is measured using the method devised by Born and Cross (G. V. R. Born and M. J. Cross, J. Physiol. 168, 178 (1963)), by adding an aggregation initiator (PAF) to the TRP with constant stirring.
The test substance is added 2 to 3 minutes before aggregation is initiated in a volume of 10 μl. Either distilled water, ethanol and/or dimethylsulphoxide (each in suitable concentrations) can be used as solvent.
Control mixtures contain corresponding volumes of these solvents. After the initial absorption has been recorded (2 to 3 minutes) aggregation is induced with PAF (5×10^-8 M).
The maximum of the first aggregation wave is used to assess the effects of the substance. The PAF-induced maximum absorption rate (=maximum aggregation×100%) is tested at the same time in a parallel mixture (=control mixture in one of the channels of the two-channel aggregometer) as each test mixture (second channel) and is used as a 100% value.
The aggregation value attained under the effect of the test substance is given as a percentage of the control value, i.e. less than 100% in the case of an inhibition of aggregation and over 100% in the case of an increase.
Each test substance is investigated at concentrations of from 10^-3 to 10^-8 M with a random sampling of n=4 with regard to an inhibitory effect on the PAF-induced thrombocyte aggregation. Then a concentration-activity curve is drawn up using 3 concentrations and the IC50 is determined (concentration giving a 50% inhibition of aggregation).

Row | Compound | IC50
1 | O=C1CN=C(c2ccccc2Cl)c2cc(Cl)ccc2N1 [compound 28] | > 100 µM
2 | N#CCCn1nnc2c1NC(=O)CN=C2c1ccccc1Cl [compound 17] | 1000 µM
3 | Cc1csc2c1C(c1ccccc1)=NCC(=O)N2 [compound 12] | 280 µM
4 | O=C1CN=C(c2ccccc2Cl)c2cc([N+](=O)[O-])ccc2N1 [compound 3] | 80 µM
5 | CCn1nc(C)c2c1C(c1ccccc1)=NCC(=S)N2 [compound 20] | 250 µM
6 | O=C1CN=C(c2ccccc2)c2cc([N+](=O)[O-])cnc2N1 [compound 8] | 250 µM
7 | COc1ccc2c(c1)C(c1ccccc1Cl)=NCC(=O)N2 [compound 25] | > 100 µM
8 | O=C1CN=C(c2ccccc2Cl)c2c(sc3c2CCOC3)N1 [compound 26] | 79 µM
9 | CN1C(=O)CN=C(c2ccccc2Cl)c2cc([N+](=O)[O-])sc21 [compound 13] | 200 µM
10 | CN1C(=O)CN=C(c2ccccc2)c2cc([N+](=O)[O-])cnc21 [compound 7] | 380 µM
11 | Cc1nc2c(n1C)C(c1ccccc1)=NCC(=O)N2 [compound 30] | > 50 µM
12 | O=C1CN=C(c2ccccc2Cl)c2sccc2N1 [compound 16] | 500 µM
13 | CN1CCN=C(c2ccccc2Cl)c2cc(Cl)ccc21 [compound 21] | 360 µM
14 | CN1C(=O)CN=C(c2ccccc2)c2cc(Cl)ccc21 [compound 1] | 250 µM
15 | CCC1N=C(c2ccccc2Cl)c2cc(Br)sc2NC1=O (centres unmarked) [compound 24] | 530 µM
16 | Cc1ccc2c(c1)C(c1ccccc1Cl)=NCC(=O)N2 [compound 22] | 580 µM
17 | O=C1CN=C(c2ccccc2Cl)c2c(sc3c2CCCS3)N1 [compound 14] | 234 µM
18 | CCc1cc2c(s1)NC(=O)CN=C2c1ccccc1Cl [compound 10] | 325 µM
19 | CN1C(=O)CN=C(c2ccccc2Cl)c2cc(Br)sc21 [compound 11] | 170 µM
20 | O=C1CN=C(c2ccccc2)c2cc([N+](=O)[O-])ccc2N1 [compound 2] | 220 µM
21 | S=C1CN=C(c2ccccc2)c2cc(Cl)ccc2N1 [compound 19] | 620 µM
22 | CN1C(=O)CN=C(c2ccccc2F)c2cc([N+](=O)[O-])ccc21 [compound 4] | 46 µM
23 | CCn1nc(C)c2c1NC(=O)CN=C2c1ccccc1Cl [compound 15] | 870 µM
24 | CCC1N=C(c2ccccc2Cl)c2ccsc2NC1=O (centres unmarked) [compound 23] | 810 µM
25 | CN1CCN=C(c2ccccc2)c2c(Cl)nsc21 [compound 18] | 110 µM
26 | COC(=O)c1ccc2c(c1)C(c1ccccc1Cl)=NCC(=O)N2 [compound 29] | 120 µM
27 | COc1cccc2c1NC(=O)CN=C2c1ccccc1Cl [compound 27] | 356 µM
28 | O=C1CN=C(c2ccccc2Cl)c2ccsc2N1 [compound 9] | 760 µM
29 | CCN(CC)CCN1C(=O)CN=C(c2ccccc2F)c2cc(Cl)ccc21 [compound 5] | 80 µM

— US4623646A, “PAF-antagonistic diazepines, methods of use” (Boehringer Ingelheim KG, priority 1984, dated 1986)
